Assay results taken from ChEMBL document CHEMBL1909046, “DrugMatrix in vitro pharmacology data”.

Legend:
[1] = biological target: T1, Muscarinic acetylcholine receptor M5 (Homo sapiens, UniProt P08912); assay type: cell membranes, CHO-K1, Membrane; conditions: cho-k1; also: in other assays of this panel Not Active means under 50% inhibition at 10 µM
T1 sequence (P08912 whole entry): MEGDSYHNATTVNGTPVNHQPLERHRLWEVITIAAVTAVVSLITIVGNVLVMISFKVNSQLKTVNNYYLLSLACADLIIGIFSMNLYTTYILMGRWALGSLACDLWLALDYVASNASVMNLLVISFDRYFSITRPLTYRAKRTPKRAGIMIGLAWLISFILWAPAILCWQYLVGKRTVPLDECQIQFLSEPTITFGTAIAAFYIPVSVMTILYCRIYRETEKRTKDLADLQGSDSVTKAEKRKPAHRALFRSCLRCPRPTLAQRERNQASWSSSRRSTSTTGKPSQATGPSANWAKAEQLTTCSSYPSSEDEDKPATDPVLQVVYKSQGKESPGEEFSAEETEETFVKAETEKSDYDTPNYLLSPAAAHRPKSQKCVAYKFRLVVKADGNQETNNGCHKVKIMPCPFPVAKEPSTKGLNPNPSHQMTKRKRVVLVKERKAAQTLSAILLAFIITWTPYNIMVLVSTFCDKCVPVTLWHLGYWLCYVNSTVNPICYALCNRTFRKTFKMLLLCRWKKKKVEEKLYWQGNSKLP

[2] = biological target: Epidermal growth factor receptor (Homo sapiens, UniProt P00533); experiment: DRUGMATRIX: Protein Tyrosine Kinase, EGF Receptor enzyme inhibition (substrate: Poly(Glu:Tyr)); assay type: cell-based, Insect cells; conditions: insect cells; Not Active = under 50% inhibition at 10 µM
[3] = biological target: T2, Alpha-2C adrenergic receptor (Homo sapiens, UniProt P18825); experiment: DRUGMATRIX: Adrenergic Alpha-2C radioligand binding (ligand: [3H] MK-912); assay type: cell membranes, Sf9, Membrane; conditions: sf9
T2 sequence (P18825 whole entry): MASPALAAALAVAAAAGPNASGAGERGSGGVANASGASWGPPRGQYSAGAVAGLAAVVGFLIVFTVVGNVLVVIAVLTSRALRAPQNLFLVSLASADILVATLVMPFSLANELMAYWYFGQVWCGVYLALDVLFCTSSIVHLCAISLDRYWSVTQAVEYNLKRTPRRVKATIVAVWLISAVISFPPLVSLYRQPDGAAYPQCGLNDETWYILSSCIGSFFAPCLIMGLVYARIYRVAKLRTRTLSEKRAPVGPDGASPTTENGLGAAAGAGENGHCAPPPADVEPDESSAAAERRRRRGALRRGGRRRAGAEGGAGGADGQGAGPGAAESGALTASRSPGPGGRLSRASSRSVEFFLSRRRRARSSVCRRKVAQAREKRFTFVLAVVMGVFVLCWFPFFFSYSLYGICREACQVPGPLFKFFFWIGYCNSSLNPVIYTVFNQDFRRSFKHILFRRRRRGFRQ

[4] = biological target: Platelet-activating factor receptor (Homo sapiens, UniProt P25105); assay type: tissue-based; also: in other assays of this panel Not Active means under 50% inhibition at 10 µM
[5] = biological target: T3, Receptor-type tyrosine-protein phosphatase C (Homo sapiens, UniProt P08575); set-up: species or system Escherichia coli;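 also: inhibition of CD45 enzyme activity measured using DiFMUP as substrate; in other assays of this panel Not Active means under 50% inhibition at 10 µM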
T3 sequence (P08575 whole entry): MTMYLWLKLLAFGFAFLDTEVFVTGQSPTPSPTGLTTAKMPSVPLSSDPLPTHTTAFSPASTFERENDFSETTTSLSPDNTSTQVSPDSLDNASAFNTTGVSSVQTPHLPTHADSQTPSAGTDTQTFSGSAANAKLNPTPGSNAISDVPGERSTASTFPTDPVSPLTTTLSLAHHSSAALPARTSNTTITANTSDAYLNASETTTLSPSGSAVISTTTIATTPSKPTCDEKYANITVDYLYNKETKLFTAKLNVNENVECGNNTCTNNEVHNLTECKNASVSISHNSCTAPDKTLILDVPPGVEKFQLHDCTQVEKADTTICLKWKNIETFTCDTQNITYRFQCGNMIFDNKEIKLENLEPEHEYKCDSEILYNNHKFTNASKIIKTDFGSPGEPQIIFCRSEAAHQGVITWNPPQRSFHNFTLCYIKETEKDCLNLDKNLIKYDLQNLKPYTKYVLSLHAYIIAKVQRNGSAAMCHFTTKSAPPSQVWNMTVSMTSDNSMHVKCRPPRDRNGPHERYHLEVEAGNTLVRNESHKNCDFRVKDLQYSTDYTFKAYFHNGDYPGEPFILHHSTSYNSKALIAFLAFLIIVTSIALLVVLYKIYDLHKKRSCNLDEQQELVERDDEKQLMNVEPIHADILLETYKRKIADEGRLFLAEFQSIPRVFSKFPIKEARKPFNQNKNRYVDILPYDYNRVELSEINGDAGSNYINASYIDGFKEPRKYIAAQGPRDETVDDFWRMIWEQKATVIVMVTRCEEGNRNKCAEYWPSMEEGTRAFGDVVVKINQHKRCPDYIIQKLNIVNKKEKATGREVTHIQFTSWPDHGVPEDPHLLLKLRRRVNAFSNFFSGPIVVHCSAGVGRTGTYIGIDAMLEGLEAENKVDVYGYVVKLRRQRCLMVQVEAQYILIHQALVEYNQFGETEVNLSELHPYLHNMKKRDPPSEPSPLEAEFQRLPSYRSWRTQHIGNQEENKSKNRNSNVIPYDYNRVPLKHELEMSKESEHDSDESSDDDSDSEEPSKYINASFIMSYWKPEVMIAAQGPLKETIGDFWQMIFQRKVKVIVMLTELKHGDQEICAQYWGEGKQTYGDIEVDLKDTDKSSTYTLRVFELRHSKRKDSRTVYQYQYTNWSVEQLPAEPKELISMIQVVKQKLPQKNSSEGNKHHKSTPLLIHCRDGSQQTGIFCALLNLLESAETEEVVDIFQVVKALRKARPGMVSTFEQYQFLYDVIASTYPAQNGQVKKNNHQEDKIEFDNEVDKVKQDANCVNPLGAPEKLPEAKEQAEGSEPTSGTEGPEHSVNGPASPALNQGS

Measured: IC50

Sequence of Epidermal growth factor receptor (P00533 whole entry): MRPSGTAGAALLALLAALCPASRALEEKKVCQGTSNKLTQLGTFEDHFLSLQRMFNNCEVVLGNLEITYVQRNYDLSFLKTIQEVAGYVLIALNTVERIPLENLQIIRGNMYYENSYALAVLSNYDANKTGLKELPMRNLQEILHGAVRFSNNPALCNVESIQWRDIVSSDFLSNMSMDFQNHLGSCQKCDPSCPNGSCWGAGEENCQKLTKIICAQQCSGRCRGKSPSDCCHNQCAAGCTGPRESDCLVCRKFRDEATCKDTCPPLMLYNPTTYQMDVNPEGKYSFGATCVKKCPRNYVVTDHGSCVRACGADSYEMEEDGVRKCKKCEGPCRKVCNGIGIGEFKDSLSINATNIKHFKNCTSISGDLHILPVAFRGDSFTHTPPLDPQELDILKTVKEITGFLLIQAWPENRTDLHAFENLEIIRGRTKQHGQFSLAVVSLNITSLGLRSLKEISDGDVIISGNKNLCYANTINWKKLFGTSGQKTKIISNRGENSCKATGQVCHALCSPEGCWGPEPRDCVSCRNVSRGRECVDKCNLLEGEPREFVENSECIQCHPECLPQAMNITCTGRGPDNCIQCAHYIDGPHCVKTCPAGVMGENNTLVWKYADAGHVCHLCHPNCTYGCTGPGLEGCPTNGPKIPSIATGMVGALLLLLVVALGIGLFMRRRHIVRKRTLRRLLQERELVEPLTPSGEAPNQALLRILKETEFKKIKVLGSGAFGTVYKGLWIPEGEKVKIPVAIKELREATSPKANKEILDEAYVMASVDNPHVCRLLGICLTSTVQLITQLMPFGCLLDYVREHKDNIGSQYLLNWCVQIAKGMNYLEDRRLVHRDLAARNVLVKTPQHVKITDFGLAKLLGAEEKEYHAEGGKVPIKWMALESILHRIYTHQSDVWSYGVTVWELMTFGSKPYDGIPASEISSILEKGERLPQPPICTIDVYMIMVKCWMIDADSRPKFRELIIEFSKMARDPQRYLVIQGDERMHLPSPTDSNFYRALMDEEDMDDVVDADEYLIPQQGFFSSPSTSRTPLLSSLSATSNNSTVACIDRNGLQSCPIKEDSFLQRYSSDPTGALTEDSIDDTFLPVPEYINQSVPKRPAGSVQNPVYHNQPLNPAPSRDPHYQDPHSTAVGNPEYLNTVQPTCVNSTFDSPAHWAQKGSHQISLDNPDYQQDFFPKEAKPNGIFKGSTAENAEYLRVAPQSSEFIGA
Sequence of Platelet-activating factor receptor (P25105 whole entry): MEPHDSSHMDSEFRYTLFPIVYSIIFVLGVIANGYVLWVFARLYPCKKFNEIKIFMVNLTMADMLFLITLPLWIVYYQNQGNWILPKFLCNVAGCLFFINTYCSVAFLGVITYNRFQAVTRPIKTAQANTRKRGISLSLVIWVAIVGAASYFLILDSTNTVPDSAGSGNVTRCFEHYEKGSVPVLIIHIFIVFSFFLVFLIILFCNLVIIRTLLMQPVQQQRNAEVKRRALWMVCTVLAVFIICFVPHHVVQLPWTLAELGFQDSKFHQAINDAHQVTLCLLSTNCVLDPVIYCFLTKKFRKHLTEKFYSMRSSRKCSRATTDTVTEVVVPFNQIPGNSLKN

COc1cc2nc(N3CCN(C(=O)C4COc5ccccc5O4)CC3)nc(N)c2cc1OC (stereo not given) [DOXAZOSIN]
Not Active: all assays above

Clc1cccc(Cl)c1NC1=NCCN1 [CLONIDINE]
Not Active: all assays above

C[C@H](CS)C(=O)N1CCC[C@H]1C(=O)O [CAPTOPRIL]
Not Active: all assays above

CC(C)(Oc1ccc(Cl)cc1)C(=O)O [CLOFIBRIC ACID]
Not Active: all assays above

OC(Cn1cncn1)(Cn1cncn1)c1ccc(F)cc1F [FLUCONAZOLE]
Not Active: all assays above

O=C1CC[C@@H](N2C(=O)c3ccccc3C2=O)C(=O)N1
Not Active: all assays above
